Test results reported in patent US20170044222A1, “Anti-Microbial Coatings and Devices” (priority 2015, published 2017).
Values joined by “and” are separate entries in the source; they are usually repeats but may differ in a detail not shown here. Equal entries are not always repeated. “Also recorded” adds a separate entry of the source. Ends that are not written are not given here.

Key:
[1] = tested on: epithelial cells; conditions: cited from earlier work
[2] = QCM-D mass attachment, layer thickness and areal mass of tether/peptide layers (Sauerbrey and Voigt-Kelvin); format: physicochemical; conditions: for Chrysophsin-1 attachment ng Voigt-Kelvin / Chrysophsin-1 attachment ng Sauerbrey: 10 μM peptide, 23° C; for Chrysophsin-1 attachment ng Voigt-Kelvin: Voigt-Kelvin viscoelastic model; for Chrysophsin-1 attachment ng Sauerbrey: mean of 3rd-11th overtones ± standard error; for C-CHY1 areal mass (ng/cm^2) Sauerbrey: Sauerbrey estimation divided by crystal surface area; for C-CHY1 areal mass (ng/cm^2) Voigt-Kelvin / PEG/C-CHY1 layer thickness (nm) Voigt-Kelvin: Voigt-Kelvin model; for C-CHY1 areal mass (ng/cm^2) Voigt-Kelvin: includes PEG spacer, attached C-CHY1 and trapped buffer; for PEG/C-CHY1 layer thickness (nm) Voigt-Kelvin: tether plus peptide film, or physically-adsorbed CHY1 film
Procedure: Referring to FIG. 1, the surface is functionalized with the anti-microbial peptide via a flexible linker molecule and exposed to bacteria in the QCM-D using QCM-D sensors as the substrate. Referring to FIG. 2 QCM-D was used to monitor covalent attachment in real-time of the PEG spacer molecule followed by introduction of the C-CHY1 peptide to the functionalized SiO2 surface (FIG. 2). According to the Sauerbrey calculation, the Δm due to PEG spacers is between 2 and 100 ng per crystal (Table 1, below; FIG. 3). The mass of PEG attached decreases with increasing tether length (FIG. 3). PEGylated surfaces show a rigid surface (ΔD values from +1×10^−6 to +2×10^−6 Hz) compared to the bulk fluid baseline, validating the use of Eqn. 1 and 2 for PEG layer calculations. When C-CHY1 is introduced, there is a rapid decrease of Δf corresponding to a Δm of 0.8 to 2.2 μg (Table 1) bound to the surface. This step is accompanied by a large increase in ΔD from near +2×10^−6 to +20×10^−6 Hz after the introduction of C-CHY1. Comparatively, CHY1 introduction leads to a Δf decrease corresponding a Δm of about 0.4 μg of CHY1 being physically-adsorbed on the surface.
Thus, parameters of the system were modeled using the Voigt-Kelvin extended viscoelastic model in Q-Tools software (Biolin Scientific, Stockholm, Sweden). This model corrects the Sauerbrey estimations for higher energy dissipation by adding terms to the Δf relation to mass (Eqn. 3) and ΔD relation to film rigidity (Eqn. 4).
Where ηL is the viscosity of the bulk liquid assumed to be water (kg/m·s); δL, and δf are the decay lengths of the acoustic wave in the bulk liquid and film (m), respectively; mq and mf […], respectively; ρf is the film density (kg/m^3). The layer was modeled to get numerical outputs for layer viscosity, density, and shear modulus (ηm, ρm, and μm), and film thickness. All overtones were modeled at once. The bulk liquid, predominantly PBS or PBS/EDTA, was assumed to have the same viscosity and density as water at 23° C. Model step size and output ranges were changed based on calculated theoretical values using estimated extended molecule size, and the lowest chi square value (χ^2) was taken. Once values of thickness (nm) and density (kg/m^3) were found with the model, the two were multiplied to calculate areal mass in ng/cm^2.
QCM-D: Covalent Linking of C-CHY1. SiO2-coated quartz crystal sensors from Biolin Scientific (Stockholm, Sweden) were used as immobilization platforms for the modified C-CHY1. Before use, SiO2 sensors were cleaned in the QCM-D at 40° C. using ethanol, DI water, 2% sodium dodecyl sulfate (w/v), DI water again, and then nitrogen dried. Lastly, sensor surfaces were treated for 2 min using an oxygen plasma cleaner (SPI Supplies, PA USA) to both clean and functionalize the surface. The SiO2 crystals were then silanized by submerging in a 10% (v/v) (3-Aminopropyl)-trimethoxysilane (APTMS) in methanol solution for 20 min. Each sensor was then rinsed twice thoroughly with methanol and DI water and placed in each QCM-D chamber.
Changes in frequency (Δf, Hz) and dissipation (ΔD, ×10-6 Hz) at the 3rd, 5th, 7th, 9th and 11th overtones were monitored at a constant 23° C. in all chambers using a Q-Sense E4 QCM-D system (Biolin Scientific, Stockholm, Sweden). All flow rates for the solutions were at 0.1 mL/min unless otherwise noted, and all volumes given are on a per chamber basis. PBS/EDTA (pH 7.2) buffer was used to establish a stable baseline measurement. Maleimide PEG N-hydroxysuccinimide ester molecules (MAL-PEG-NHS) with molecular weights (MW) of 866 (ThermoScientific, Waltham Mass., USA), 2000, or 7500 (JenKem Technology USA Inc., Allen, Tex. USA) were purchased. These will be referred to as PEG 866, PEG 2000 and PEG 7500, respectively. One mL of 100 μM MAL-PEG-NHS was flowed through the QCM-D and subsequently incubated for 30 min. Crystals were then rinsed with 1.2 mL of the PBS/EDTA (pH 7.2) buffer. […]

[3] = tested on: Staphylococcus aureus (ATCC 48366); test: Bacterial mortality on peptide-coated QCM-D sensors (LIVE/DEAD BacLight), S. aureus; format: cell-based; conditions: for mortality of S. aureus: 1 hour exposure to surface-bound peptide, PEG binding at 23° C; for bactericidal activity against S. aureus compared across tether lengths: C-CHY1 tethered via PEG 866, 2000 or 7500, 1 hour exposure
Procedure: (§1) Bacterial Strains and Culturing. Escherichia coli HB101 (ATCC 33694) and Staphylococcus aureus (ATCC 48366) were cultured overnight in Luria-Bertani broth (20 g/L). For QCM-D and toxicity studies, cells were harvested at the late logarithmic phase in their growth curve, as confirmed by absorbance measurements (OD(600)=0.7-1.0 arbitrary units) (Thermo Scientific USA, Waltham, Mass. USA). The cells were centrifuged at 1284×g (Centrific Thermo Scientific, Waltham, Mass. USA) and re-suspended in 0.01 M, pH 7.2 phosphate buffered saline (PBS) (Sigma Aldrich, St. Louis, Mo. USA) twice, and then diluted 100-fold to approximately 10^8 cfu/mL.
(§2) Changes in frequency (Δf, Hz) and dissipation (ΔD, ×10-6 Hz) at the 3rd, 5th, 7th, 9th and 11th overtones were monitored at a constant 23° C. in all chambers using a Q-Sense E4 QCM-D system (Biolin Scientific, Stockholm, Sweden). All flow rates for the solutions were at 0.1 mL/min unless otherwise noted, and all volumes given are on a per chamber basis. PBS/EDTA (pH 7.2) buffer was used to establish a stable baseline measurement. Maleimide PEG N-hydroxysuccinimide ester molecules (MAL-PEG-NHS) with molecular weights (MW) of 866 (ThermoScientific, Waltham Mass., USA), 2000, or 7500 (JenKem Technology USA Inc., Allen, Tex. USA) were purchased. These will be referred to as PEG 866, PEG 2000 and PEG 7500, respectively. One mL of 100 μM MAL-PEG-NHS was flowed through the QCM-D and subsequently incubated for 30 min. Crystals were then rinsed with 1.2 mL of the PBS/EDTA (pH 7.2) buffer. Similarly, 1.25 mL of 10 μM C-CHY1 solution was then flown over the sensors and allowed to incubate for 30 min. To rinse excess C-CHY1 off the surface and prepare for the introduction of 2 mL bacteria, a 45 min PBS rinse at 0.3 mL/min was first flowed through the QCM-D. The dilute bacterial solution was allowed to incubate for 1 hour, followed by a final 2 mL PBS (pH 7.2) rinse. The crystals were removed from the chambers and placed in individual petri dishes containing 0.85% (w/v) NaCl solution for bacterial viability testing.
QCM-D Control Experiments: Physical Adsorption of CHY1. Similarly, SiO2-coated sensors were used for physical adsorption of unmodified CHY1 and were prepared as described above. For this experiment there was no APTMS functionalization or PEG flow, thus, after cleaning, the crystals were placed immediately into the QCM-D, PBS (pH 7.2) was used to establish a baseline and 1.25 mL of 10 μM CHY1 solution was introduced. Then, flow was stopped and CHY1 was incubated for 30 min. The rest of the protocol described in the previous section was then followed, including the 0.3 mL/min PBS rinse, bacterial flow, bacterial incubation and final PBS rinse. The crystals were removed from the chambers and placed in individual petri dishes containing 0.85% (w/v) NaCl solution for bacterial viability testing. For the next type of control, crystals that had never been coated with APTMS were cleaned and placed into the QCM-D chambers without functionalization. Starting with a PBS rinse, the crystals were exposed to bacteria solution for 1 hour and then rinsed before imaging. For the APTMS control, crystals were cleaned and functionalized with APTMS. Then the procedure continued starting with a PBS rinse (pH 7.2), bacteria introduction, incubation, and a final rinse before imaging. […]
(§3) Bacterial Mortality. Bacterial mortality was determined immediately after the final rinse of the QCM-D experiment. […]

[4] = tested on: Escherichia coli HB101 (ATCC 33694); test: Bacterial mortality on peptide-coated QCM-D sensors (LIVE/DEAD BacLight), E. coli; format: cell-based; conditions: for mortality of E. coli: 1 hour exposure to surface-bound peptide, PEG binding at 23° C; for bactericidal activity against E. coli compared across tether lengths: C-CHY1 tethered via PEG 866, 2000 or 7500, 1 hour exposure
Procedure: as §1, §2
QCM-D Control Experiments: Physical Adsorption of CHY1. Similarly, SiO2-coated sensors were used for physical adsorption of unmodified CHY1 and were prepared as described above. For this experiment there was no APTMS functionalization or PEG flow, thus, after cleaning, the crystals were placed immediately into the QCM-D, PBS (pH 7.2) was used to establish a baseline and 1.25 mL of 10 μM CHY1 solution was introduced. Then, flow was stopped and CHY1 was incubated for 30 min. […]
as §3

[5] = tested on: keratinocyte; conditions: cited from earlier work

Compound	concentration with significant toxicity against epithelial cells [1]	Chrysophsin-1 attachment ng Voigt-Kelvin ([2]; QCM-D) [ng]	Chrysophsin-1 attachment ng Sauerbrey ([2]; QCM-D) [ng]	C-CHY1 areal mass (ng/cm^2) Sauerbrey ([2]; QCM-D) [ng/cm^2]	C-CHY1 areal mass (ng/cm^2) Voigt-Kelvin ([2]; QCM-D)	PEG/C-CHY1 layer thickness (nm) Voigt-Kelvin ([2]; QCM-D)	PEG/C-CHY1 layer thickness (nm) Voigt-Kelvin ([2]; QCM-D, listed as No Tether (PHYS-ADSORB)) [nm]	Δm bound to the surface on peptide introduction ([2]; QCM-D, from Δf decrease on peptide flow, before rinse)	peptide remaining adsorbed after rinse ([2]; physical adsorption, after PBS rinse)	mortality of S. aureus [3] [%]	mortality of E. coli [4] [%]	concentration that negatively affects keratinocyte viability [5]	bactericidal activity against S. aureus compared across tether lengths [3]	bactericidal activity against E. coli compared across tether lengths [4]	extension of layer: modelled thickness as percent of theoretical maximum thickness ([2]; Voigt-Kelvin thickness vs theoretical maximum) [%]	mortality of S. aureus after temperature-optimized PEG binding ([3]; PEG 7500 binding at 55° C, back to 23° C for C-CHY1 binding and 1 hour S. aureus incubation) [%]
CC[C@H](C)[C@H](NC(=O)CN)C(=O)NCC(=O)N[C@@H](C)C(=O)N[C@H](C(=O)N[C@@H](CC(C)C)C(=O)N[C@@H](CCCCN)C(=O)N[C@H](C(=O)N[C@@H](CC(C)C)C(=O)N[C@H](C(=O)N[C@H](C(=O)NCC(=O)N[C@@H](CC(C)C)C(=O)N1CCC[C@H]1C(=O)N[C@@H](C)C(=O)N[C@@H](CC(C)C)C(=O)N[C@H](C(=O)N[C@@H](CO)C(=O)N[C@@H](Cc1c[nH]c2ccccc12)C(=O)N[C@H](C(=O)N[C@@H](CCCCN)C(=O)N[C@@H](CCCNC(=N)N)C(=O)N[C@@H](CCCCN)C(=O)N[C@@H](CCCNC(=N)N)C(=O)N[C@@H](CCC(N)=O)C(=O)N[C@@H](CCC(N)=O)C(N)=O)[C@@H](C)CC)[C@@H](C)CC)[C@@H](C)O)[C@@H](C)O)C(C)C)C(C)C [melittin]	1.2															
FFGWLIKGAIHAGKAIHGLIHRRRH [CHY1, Chrysophsin-1, reference compound]		373.3 ± 58.6	204.9 ± 7.99	260.9 ± 10.2	475.3 ± 74.6 ng/cm^2	2.5±0.5 nm	2.50 ± 0.49	about 0.4 μg	about 50%	56.7±1.1	52.3±1.2					
LL-37: human derived cathelicidin peptide												10				
Maleimide PEG N-hydroxysuccinimide ester [PEG 866]		835.2 ± 168	874.0 ± 48.8	1113 ± 62.2	1063±215 ng/cm^2						46±2.3					
Maleimide PEG N-hydroxysuccinimide ester [PEG 2000]		2284 ± 113	2238 ± 60.4	2850 ± 76.9	2909±144 ng/cm^2	17.6±1.3 nm and 17.6±1.32 nm							lowest ability to kill	lowest ability to kill		
Maleimide PEG N-hydroxysuccinimide ester [PEG 7500]		1870 ± 176	1753 ± 43.9	2232 ± 55.0	2381±223 ng/cm^2 and 2381 ± 224 ng/cm^2	21.9±1.86 nm				64±4.5			most efficient bactericidal activity; also recorded: highest activity	most efficient bactericidal activity; also recorded: highest activity	38	91±6.9
